Measurements published in PMC3927474, “Whole body synthesis rates of DHA from α-linolenic acid are greater than brain DHA accretion and uptake rates in adult rats” (Journal of Lipid Research, 2014).

Assay: Balance study: n-3 and n-6 PUFA balance (intake, excretion, accretion, metabolic consumption)
Format: in vivo, rat
Settings: 24 h feces at 8 weeks postweaning, percentage of intake
Protocol: All procedures were performed in accordance with the policies set out by the Canadian Council on Animal Care and were approved by the Animal Ethics Committee at the University of Toronto. Three Long Evans dams each with 18-day-old male Long Evans pups were ordered from Charles River Laboratories (St. Constant, QC, Canada). Pups were nonlittermates and each dam was housed with pups. Upon arrival, dams were allocated to one of the three diets (described below). When the pups were 21 days old, two pups from each dam were euthanized by high-energy head-focused microwave fixation (4.5 kW for 0.9 s). Brains were removed immediately and stored at -80°C until lipid analysis. Bodies were also stored at -80°C immediately after euthanization until analysis. The brains and bodies of these pups were used to determine the PUFA content of the rats at weaning (i.e., baseline PUFA content). […] For the balance study, the rats were weighed, food intake was determined, and uneaten food was replaced with fresh food on a weekly basis. Rats were euthanized by CO2 asphyxiation. Brains were removed and dissected sagittally. Carcasses and one half brain per rat were stored immediately at -80°C (to be later analyzed for lipid content). […] For the steady-state infusion study and the brain DHA uptake study, a jugular vein catheter was surgically implanted into the rats. […] Carcasses were thawed overnight in a refrigerator at 3°C, cut into pieces, and passed through a #12 hand grinder. After the whole body had passed through the grinder once, the homogenate was mixed together by hand and passed at least one more time through the grinder until the mixture was sufficiently homogeneous. Due to the small size of the pups all of the 21-day-old pup bodies were passed through the grinder together. […] New chloroform was added to the remaining aqueous phase, the mixture was once again centrifuged, and the chloroform layer was extracted and added to the previously extracted chloroform layer. […] One hemisphere was thawed briefly and dissected over ice to separate the brainstem, cerebellum, cortex, hippocampus, striatum, and the rest of the brain. […] The homogenizer was then washed with methanol, which was then transferred to the test tube containing the homogenized brain and KCl. […] The chloroform layer was extracted and new chloroform was added to the aqueous phase. […] At 8 weeks postweaning all the feces produced by a rat in 24 h were collected. […] Mean PUFA excretion (percentage of intake) was determined and applied to all animals to determine PUFA excretion. […] Nu-Check Prep, Elysian, MN) was added to the TLE. […] Samples were injected in […] mode. The injector and detector ports were set at 250°C. […] The carrier gas was helium, set to a constant flow rate of 0.7 ml/min. Peaks were identified by retention times of authentic FAME standards (Nu-Chek Prep). […] The concentrations were expressed on a per gram basis then multiplied by total weight of the tissue to determine the total amount of each fatty acid in the tissue.

CCCCC/C=C\C/C=C\CCCCCCCC(=O)O [LNA, linoleic acid]
Dietary PUFA excreted in the feces: 0.5 ± 0.05%
